Counter-ions that a name gives are not always drawn. A value given as a limit tells only on which side of the number the result lay.

The assay concerns the target MCH receptor (Homo sapiens, UniProt Q99705). The experiment in a line: FLIPR/FDSS6000 functional assay: intracellular Ca2+ changes evoked by MCH. It is filed as cell-based. To be noted: class by percent of control at 10^−7 M or by IC50; antagonist activity, 50 nM of MCH; read-out: class. The source says:
Subsequently, a functional based assay was used to confirm the lead hits, referred to as FLIPR™ (the Fluorometric Imaging Plate Reader) and FDSS6000™ (Functional Drug Screening System). This assay utilized a non-endogenous, constitutively active version of the MCH receptor.
The FLIPR and FDSS assays are able to detect intracellular Ca^2+ concentration in cells, which can be utilized to assess receptor activation and determine whether a candidate compound is an, for example, antagonist, inverse agonist or agonist to a Gq-coupled receptor. The concentration of free Ca^2+ in the cytosol of any cell is extremely low, whereas its concentration in the extracellular fluid and endoplasmic reticulum (ER) is very high. Thus, there is a large gradient tending to drive Ca^2+ into the cytosol across both the plasma membrane and ER. The FLIPR™ and FDSS6000™ systems (Molecular Devices Corporation, HAMAMATSU Photonics K.K.) are designed to perform functional cell-based assays, such as the measurement of intracellular calcium for high-throughput screening. The measurement of fluorescent is associated with calcium release upon activation of the Gq-coupled receptors.
Fluorometric Imaging Plate Reader system was used to allow for rapid, kinetic measurements of intracellular fluorescence in 96 well microplates (or 384 well microplates). Simultaneous measurements of fluorescence in all wells can be made by FLIPR or FDSS6000™ every second with high sensitivity and precision. These systems are ideal for measuring cell-based functional assays such as monitoring the intracellular calcium fluxes that occur within seconds after activation of the Gq coupled receptor.
Briefly, the cells are seeded into 96 well at 5.5×10^4 cells/well with complete culture media (Dulbecco's Modified Eagle Medium with 10% fetal bovine serum, 2 mM L-glutamine, 1 mM sodium pyruvate and 0.5 mg/mL G418, pH 7.4) for the assay next day. On the day of assay, the media is removed and the cells are incubated with 100 μl of loading buffer (4 μM Fluo-4-AM in complete culture media containing 2.5 mM Probenicid, 0.5 mg/ml and 0.2% bovine serum albumin) in 5% CO2 incubator at 37° C. for 1 hr. The loading buffer is removed, and the cells are washed with wash buffer (Hank's Balanced Salt Solution containing 2.5 mM Probenicid, 20 mM HEPES, 0.5 mg/mL and 0.2% bovine serum albumin, pH 7.4). One hundred fifty μl of wash buffer containing various concentrations of test compound is added to the cells, and the cells are incubated in 5% CO2 incubator at 37° C. for 30 min. Fifty μl of wash buffer containing various concentration of MCH are added to each well, and transient changes in [Ca^2+]i evoked by MCH are monitored using the FLIPR or FDSS in 96 well plates at Ex. 488 nm and Em. 530 nm for 290 second. When antagonist activity of compound is tested, 50 nM of MCH is used.
Use of FLIPR™ and FDSS6000™ can be accomplished by following manufacturer's instruction (Molecular Device Corporation and HAMAMATSU Photonics K.K.).
For the compound `Cc1nc(N[C@H]2CC[C@@H](NC(=O)Oc3ccc(Br)cc3)CC2)cc(N(C)C)n1` [Example 184, 4-Bromophenyl (cis-4-{[6-(dimethylamino)-2-methylpyrimidin-4-yl]amino}cyclohexyl)carbamate], the IC50 is > 200 nM.

Turning to `CN(C)c1cc(N[C@H]2CC[C@@H](NC(=O)c3ccc(F)c(Cl)c3)CC2)nc(C(F)(F)F)n1` [Example 47, 3-Chloro-N-(cis-4-{[6-(dimethylamino)-2-(trifluoromethyl)pyrimidin-4-yl]amino}cyclohexyl)-4-fluorobenzamide hydrochloride], the IC50 is > 200 nM.

Turning to `Cc1nc(N[C@H]2CC[C@@H](NC(=O)c3cccc(OC(F)(F)F)c3)CC2)cc(N(C)C)n1` [Example 18, N-(cis-4-{[6-(Dimethylamino)-2-methylpyrimidin-4-yl]amino}cyclohexyl)-3-(trifluoromethoxy)benzamide hydrochloride], the IC50 was < 50 nM.

As for `CNc1cc(N[C@H]2CC[C@@H](NC(=O)c3ccc(F)c(F)c3)CC2)nc(C)n1` [Example 30, 3,4-Difluoro-N-(cis-4-{[2-methyl-6-(methylamino)pyrimidin-4-yl]amino}cyclohexyl)-benzamide hydrochloride], the IC50 was > 200 nM.

For `Cc1nc(NC2CC2)cc(N[C@H]2CC[C@@H](NC(=O)c3cc(F)c(F)c(F)c3)CC2)n1` [Example 173, N-(cis-4-{[6-(Cyclopropylamino)-2-methylpyrimidin-4-yl]amino}cyclohexyl)-3,4,5-trifluorobenzamide hydrochloride], the IC50 was > 200 nM.

On to `CN(C)c1cc(N[C@H]2CC[C@@H](NC(=O)c3ccc(F)c(F)c3)CC2)nc(N(C)C)n1` [Example 33, N-(cis-4-{[2,6-bis(Dimethylamino)pyrimidin-4-yl]amino}cyclohexyl)-3,4-difluorobenzamide hydrochloride], for which the IC50 fell in the range of 50 to 200 nM.

On to `Cc1nc(N[C@H]2CC[C@@H](NC(=O)c3ccc(C(F)(F)F)cc3)CC2)cc(N(C)C)n1` [Example 19, N-(cis-4-{[6-(Dimethylamino)-2-methylpyrimidin-4-yl]amino}cyclohexyl)-4-(trifluoromethyl)benzamide hydrochloride], for which the IC50 was > 200 nM.

Regarding `Cc1nc(N[C@H]2CC[C@@H](NC(=O)c3ccc(F)c(F)c3)CC2)cc(N(C)C)n1` [Example 5, N-(cis-4-{[6-(Dimethylamino)-2-methylpyrimidin-4-yl]amino}cyclohexyl)-3,4-difluorobenzamide hydrochloride], the IC50 is < 50 nM.

Consider `Cc1nc(NC[C@H]2CC[C@@H](NC(=O)c3ccc(F)c(F)c3)CC2)cc(N(C)C)n1` [Example 28, N-[cis-4-({[6-(Dimethylamino)-2-methylpyrimidin-4-yl]amino}methyl)cyclohexyl]-3,4-difluorobenzamide hydrochloride], for which the IC50 is > 200 nM.

On to `Cc1nc(N[C@H]2CC[C@@H](NC(=O)c3ccc(Cl)c(Cl)c3)CC2)cc(N(C)C)n1` [Example 8, 3,4-Dichloro-N-(cis-4-{[6-(dimethylamino)-2-methylpyrimidin-4-yl]amino}cyclohexyl)-benzamide hydrochloride], for which the IC50 was < 50 nM.

On to `CCn1ccc2c(N[C@H]3CC[C@@H](NC(=O)c4ccc(F)c(Cl)c4)CC3)ncnc21` [Example 189, 3-Chloro-N-{cis-4-[(7-ethyl-7H-pyrrolo[2,3-d]pyrimidin-4-yl)amino]cyclohexyl}-4-fluorobenzamide hydrochloride], for which the IC50 is > 200 nM.

For `CNc1cc(N[C@H]2CC[C@@H](NC(=O)c3ccc(F)c(Cl)c3)CC2)nc(C)n1` [Example 31, 3-Chloro-4-fluoro-N-(cis-4-{[2-methyl-6-(methylamino)pyrimidin-4-yl]amino}cyclohexyl)-benzamide hydrochloride], the IC50 is 50 to 200 nM.

Take `CN(C)c1cc(N[C@H]2CC[C@@H](NC(=O)c3ccc(F)c(F)c3)CC2)ncn1` [Example 2, N-(cis-4-{[6-(1-Dimethylamino)pyrimidin-4-yl]amino}cyclohexyl)-3,4-difluorobenzamide hydrochloride]: the IC50 lay within 50 to 200 nM.

In the case of `CN(C)c1nccc(N[C@H]2CC[C@@H](NC(=O)c3ccc(F)c(Cl)c3)CC2)n1` [Example 44, 3-Chloro-N-(cis-4-{[2-(dimethylamino)pyrimidin-4-yl]amino}cyclohexyl)-4-fluorobenzamide hydrochloride], the IC50 is < 50 nM.

With `Cc1nc(N[C@H]2CC[C@@H](NC(=O)c3ccc(F)c(Cl)c3)CC2)cc(-n2ccnc2)n1` [Example 38, 3-Chloro-4-fluoro-N-(cis-4-{[6-(1H-imidazol-1-yl)-2-methylpyrimidin-4-yl]amino}cyclohexyl)-benzamide dihydrochloride], the IC50 is > 200 nM.

Consider `CN(C)c1cc(N[C@H]2CC[C@@H](CNC(=O)c3ccc(F)c(F)c3)CC2)ncn1` [Example 4, N-[(cis-4-{[6-(Dimethylamino)pyrimidin-4-yl]amino}cyclohexyl)methyl]-3,4-difluorobenzamide hydrochloride], for which the IC50 is > 200 nM.

Regarding `Cc1nc(N[C@H]2CC[C@@H](NC(=S)Nc3ccc(F)c(Cl)c3)CC2)cc(N(C)C)n1` [Example 183, N-(3-Chloro-4-fluorophenyl)-N′-(cis-4-{[6-(dimethylamino)-2-methylpyrimidin-4-yl]amino}cyclohexyl)thiourea hydrochloride], the IC50 is > 200 nM.

With `CCN(C)c1cc(N[C@H]2CC[C@@H](NC(=O)c3cc(F)c(F)c(F)c3)CC2)nc(C)n1` [Example 176, N-[cis-4-({6-[Ethyl(methyl)amino]-2-methylpyrimidin-4-yl}amino)cyclohexyl]-3,4,5-trifluorobenzamide hydrochloride], the IC50 was > 200 nM.

For the compound `Cc1nc(N[C@H]2CC[C@@H](NC(=O)c3ccc(F)c(C(F)(F)F)c3)CC2)cc(N(C)C)n1` [Example 14, N-(cis-4-{[6-(Dimethylamino)-2-methylpyrimidin-4-yl]amino}cyclohexyl)-4-fluoro-3-(trifluoromethyl)benzamide hydrochloride], the IC50 was < 50 nM.

As for `COc1cc(N[C@H]2CC[C@@H](NC(=O)c3ccc(F)c(Cl)c3)CC2)nc(OC)n1` [Example 185, 3-Chloro-N-{cis-4-[(2,6-dimethoxypyrimidin-4-yl)amino]cyclohexyl}-4-fluorobenzamide hydrochloride], the IC50 was > 200 nM.

Take `CN(C)c1cc(N[C@H]2CC[C@@H](NCc3ccc(Br)cc3OC(F)(F)F)CC2)ncn1` [Example 1, N′-(cis-4-{[4-Bromo-2-(trifluoromethoxy)benzyl]amino}cyclohexyl)-N,N-dimethylpyrimidine-4,6-diamine dihydrochloride]: the IC50 is > 200 nM.

Regarding `Cc1cc(N[C@H]2CC[C@@H](NC(=O)c3ccc(F)c(F)c3)CC2)nc(N(C)C)n1` [Example 43, N-(cis-4-{[2-(Dimethylamino)-6-methylpyrimidin-4-yl]amino}cyclohexyl)-3,4-difluorobenzamide hydrochloride], the IC50 was 50 to 200 nM.

`Cc1nc(N[C@H]2CC[C@@H](NC(=O)c3cc(F)cc(C(F)(F)F)c3)CC2)cc(N(C)C)n1` [Example 26, N-(cis-4-{[6-(Dimethylamino)-2-methylpyrimidin-4-yl]amino}cyclohexyl)-3-fluoro-5-(trifluoromethyl)benzamide hydrochloride]: the IC50 fell in the range of 50 to 200 nM.

On to `CNc1cc(N[C@H]2CC[C@@H](NC(=O)c3cc(F)c(F)c(F)c3)CC2)nc(C)n1` [Example 169, 3,4,5-Trifluoro-N-(cis-4-{[2-methyl-6-(methylamino)pyrimidin-4-yl]amino}cyclohexyl)-benzamide hydrochloride], for which the IC50 lay within 50 to 200 nM.

For `O=C(N[C@H]1CC[C@@H](Nc2ncnc3[nH]ccc23)CC1)c1ccc(F)c(Cl)c1` [Example 186, 3-Chloro-4-fluoro-N-[cis-4-(7H-pyrrolo[2,3-d]pyrimidin-4-ylamino)cyclohexyl]benzamide hydrochloride], the IC50 was > 200 nM.

Regarding `Cc1nc(N[C@H]2CC[C@@H](NS(=O)(=O)c3ccc(F)c(Cl)c3)CC2)cc(N(C)C)n1` [Example 182, 3-Chloro-N-(cis-4-{[6-(dimethylamino)-2-methylpyrimidin-4-yl]amino}cyclohexyl)-4-fluorobenzenesulfonamide hydrochloride], the IC50 was > 200 nM.

(Values after patent publication US20090036448A1, “PYRIMIDINE DERIVATIVES AND METHODS OF TREATMENT RELATED TO THE USE THEREOF” (TAISHO PHARMECUTICAL CO., LTD., priority 2004, published 2009).)
